Literature values in US20030203881A1, “Method of treating neurologic disorders” (priority 2000, published 2003).

Legend:
microglial response = details: experimental model of stroke, around stroke lesions
neurons = details: tissue culture
inflammatory cells = details: EAE
[1] = system: patients with mild and moderate arthritis
[2] = system: osteoarthritis in dog models; details: prophylactic administration

In the case of `CN(C)c1ccc(O)c2c1C[C@H]1C[C@H]3[C@H](N(C)C)C(=O)C(C(N)=O)=C(O)[C@@]3(O)C(=O)C1=C2O` [minocycline], the “microglial response in the area surrounding areas of brain ischemia” value (microglial response) is listed as “reduced the microglial response”, the “protection of neurons against death” value (neurons) is listed as “protects neurons against death” and the “invasion of inflammatory cells into the CNS” value (inflammatory cells) is listed as “prevents the invasion of inflammatory cells into the CNS”. The “efficacy in patients with arthritis” value [1] was “effective” and the “safety in patients with arthritis” value [1] was “safe”.
In the case of `C[C@H]1c2cccc(O)c2C(=O)C2=C(O)[C@]3(O)C(=O)C(C(N)=O)=C(O)[C@@H](N(C)C)[C@@H]3[C@@H](O)[C@@H]21` [doxycycline], the severity of osteoarthritis [2] is listed as “markedly reduced the severity of osteoarthritis”.
